Measurements as given in patent publication US8895504B2, “Amylin derivatives” (priority 2008, dated 2014).
*1 amine or outer side, *2 acyl side, *3 side chain or, on linkers, in order; H or OH if unused. Where a SMILES comes first, the peptide text is derived from it. Bridges are numbered along the chain shown (N, C = ends). The star is where a group is joined. C20 diacid = O=C(O)CCCCCCCCCCCCCCCCCCC(=O)*; C18 diacid = O=C(O)CCCCCCCCCCCCCCCCC(=O)*; γGlu = O=C(O)[C@H](CCC(=O)[*:2])N[*:1]

Legend:
[1] = Assay (V) PK - determination of T½ in mini-pig; format: in vivo; details: minipig, sc; terminal plasma half-life, subcutaneous, approx 2 nmol/kg, male Göttingen mini-pigs
Description: Assay (V) PK—Determination OF T½ in Mini-Pig
T½ is the terminal half-life=ln 2/λz of a compound in plasma. λz is the first order rate constant associated with the terminal (log-linear) portion of the plasma concentration-time curve and is estimated by linear regression of time vs. log concentration.
T½ values of the amylin analogues of the invention is determined by pharmacokinetic studies in male Göttingen mini-pigs from Ellegaard Göttingen Minipigs ApS and the principles of laboratory animal care are followed.
An acclimatization period of approximately 6-10 days was allowed before the animals entered the study. At start of the acclimatization period the mini-pigs were about 5 to 12 months old and in the weight range of 7-35 kg. The mini-pigs had two central venous catheters inserted which were used for blood sampling.
The studies were conducted in an animal room which was illuminated to give a cycle of approx 12 hours light and 12 hours darkness. The animals were housed individually.
The animals had free access to domestic quality drinking water during the study, but were typically fasted from overnight before dosing until approx 6-12 hours after dosing. The animals were weighed on arrival and on the days of dosing.
In the present studies the test substances were administered subcutaneously in approx 2 nmol/kg dose. The animals received a single subcutaneous injection. The subcutaneous injection was given on the right side of the neck, approximately 5-7 cm from the ear and 7-9 cm from the middle of the neck. The injections were given with a stopper on the needle, allowing approx 0.5 cm of the needle to be introduced. Each test substance was given to typically three but in some cases two or four animals.
A full plasma concentration-time profile, employing 12-16 sampling points, was obtained from each animal. In example blood samples were collected according to the following schedule:
After subcutaneous administration:
Predose (0), 0.5, 1, 2, 4, 6, 8, 12, 24, 48, 72, 96, 120, 168 and 240 hours after injection. In some cases also additional blood samples up to 288 hours post injection were taken.
At each sampling time, 0.5 to 2 ml of blood was drawn from each animal. The blood samples were taken via the central venous catheter.
The blood samples were collected into EDTA test tubes (i.e. Sarstedt Micro tube 1.3 mL K3E). Blood samples were kept on ice for max 20 min. before centrifugation. Plasma was separated using centrifugation (i.e. at 4° C., 10 min., 1500 G) and was immediately transferred to Micronic tubes. Approximately 200 μl plasma was transferred to each Micronic tube. The plasma was stored at −20° C. until assayed. The plasma samples were assayed for the content of amylin using an ELISA assay.
The plasma concentration-time profiles were analysed by a non-compartmental pharmacokinetic analysis (NCA) using WinNonlin Professional 5.0 (Pharsight Inc., Mountain View, Calif., USA). NCA was performed using the individual plasma concentration-time profiles from each animal. T½ is the terminal half-life=ln 2/λz and was determined from λz, the first order rate constant associated with the terminal (log-linear) portion of the curve, estimated by linear regression of time vs. log concentration.
ELISA Plasma Assay for Amylin Quantification
The human amylin ELISA is a monoclonal antibody-based sandwich immunoassay for determining amylin levels in human plasma. The capture antibody recognizes human amylin, amylin acid (deamidated amylin), a 1-20 fragment of amylin, but not reduced amylin.
The detection antibody binds to reduced or unreduced human amylin but not amylin acid and is complexed with streptavidin-alkaline phosphatase. The substrate, 4-methylumbelliferyl phosphate, is applied to the completed sandwich and the fluorescent signal, monitored at 355 nm/460 nm, is proportional to the amount of amylin present in the sample.

[2] = system: food intake; experiment: Pharmacological Assay (I) - efficacy testing on appetite, ad libitum fed rat model; format: in vivo, Sprague Dawley (SD) rats; details: 30 nmol/kg vs vehicle, ad libitum fed rats, n=5-7, 0-48 hours
Excerpt: Assays Pharmacological Assay (I)—Experimental Protocol for Efficacy Testing on Appetite with an Amylin Derivative, Using an Ad Libitum Fed Rat Model. Sprague Dawley (SD) rats from Taconic Europe, Denmark are used for the experiments. The rats have a body weight 200-250 g at the start of experiment. The rats arrive at least 10-14 days before start of experiment to allow acclimatization to experimental settings. During this period the animals are handled at least 2 times. After arrival rats are housed individually for one week in a reversed light/dark phase (meaning that lights are off during daytime and on during nighttime) for two weeks. Since rats are normally active and eat their major part of their daily food intake during the dark period, rats are dosed in the morning right before lights are turned off. This set-up results in the lowest data variation and highest test sensitivity. The experiment is conducted in the rats' home cages and rats have free access to food and water throughout the acclimatization period and the experiment period. Each dose of derivative is tested in a group of 5-8 rats. A vehicle group of 6-8 rats is included in each set of testing. Rats are dosed once according to body weight with a 0.01-3 mg/kg solution administered intraperitoneally (ip), orally (po) or subcutaneously (sc). The time of dosing is recorded for each group. After dosing, the rats are returned to their home cages, where they then have access to food and water. The food consumption is recorded individually continuously by on-line registration or manually every hour for 7 hours, and then after 24 h and sometimes 48 h. At the end of the experimental session, the animals are euthanized. The individual data are recorded in Microsoft excel sheets. Outliers are excluded after applying the Grubbs statistical evaluation test for outliers, and the result is presented graphically using the GraphPad Prism program.

[3] = target: T1, Amylin 3(a) receptor (human calcitonin receptor (CTa) and RAMP-3) (Homo sapiens, UniProt O60896+P30988); experiment: Luciferase assay (III), BHK Amylin 3(a)//CRE-luc cells; format: cell-based; details: BHK cells with Amylin 3(a) receptor and CRE luciferase reporter, 4 hours incubation; read-out: Potency Luciferase
T1 construct: expressed in transfected cells; host or cells: BHK570 cells, stably transfected with a CRE-luciferase reporter
How it was run: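 BHK570 cells stably expressing CTa, RAMP-3 and a CRE-luciferase reporter, seeded at about 20,000 cells/well and grown overnight. Cells were exposed to standard or sample for 4 h at 37° C in phenol red-free DMEM with 10% FBS and 10 mM Hepes, pH 7,4. Luminescence was read after 30 min LucLite at room temperature.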

T1 sequence (O60896 24-148): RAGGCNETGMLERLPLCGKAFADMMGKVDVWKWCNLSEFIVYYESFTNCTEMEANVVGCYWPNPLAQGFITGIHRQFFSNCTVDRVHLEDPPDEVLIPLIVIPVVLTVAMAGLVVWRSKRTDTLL
T1 sequence (P30988 25-474): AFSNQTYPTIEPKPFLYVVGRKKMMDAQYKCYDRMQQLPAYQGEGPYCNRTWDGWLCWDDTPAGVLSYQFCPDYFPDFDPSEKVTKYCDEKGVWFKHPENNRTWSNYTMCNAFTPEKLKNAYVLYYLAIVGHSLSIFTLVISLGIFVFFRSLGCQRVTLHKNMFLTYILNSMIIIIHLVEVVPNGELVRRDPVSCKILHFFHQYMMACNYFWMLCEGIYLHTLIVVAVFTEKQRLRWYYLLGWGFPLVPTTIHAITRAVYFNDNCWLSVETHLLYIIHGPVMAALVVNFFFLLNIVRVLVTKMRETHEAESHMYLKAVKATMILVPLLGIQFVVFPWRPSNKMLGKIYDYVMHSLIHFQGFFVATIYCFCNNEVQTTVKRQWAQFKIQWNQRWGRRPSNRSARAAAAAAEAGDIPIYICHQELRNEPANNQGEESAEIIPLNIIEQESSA

Structure (SMILES) | half-life [1] | food intake over a period of 48 hours [2] | EC50 [3]
CC[C@H](C)[C@H](NC(=O)[C@@H]1CCCN1C(=O)CNC(=O)[C@H](Cc1ccccc1)NC(=O)[C@H](CC(N)=O)NC(=O)[C@H](CC(N)=O)NC(=O)[C@H](CO)NC(=O)[C@H](CO)NC(=O)[C@H](Cc1c[nH]cn1)NC(=O)[C@H](Cc1c[nH]cn1)NC(=O)[C@H](CC(C)C)NC(=O)[C@H](Cc1ccccc1)NC(=O)[C@H](CC(N)=O)NC(=O)[C@H](C)NC(=O)[C@H](CC(C)C)NC(=O)[C@H](CCCNC(=N)N)NC(=O)[C@H](CCC(N)=O)NC(=O)[C@@H](NC(=O)[C@H](C)NC(=O)[C@@H]1CSSC[C@H](NC(=O)[C@H](Cc2c[nH]cn2)NC(=O)[C@H](Cc2c[nH]cn2)NC(=O)CC[C@H](NC(=O)CCCCCCCCCCCCCCCCC(=O)O)C(=O)O)C(=O)N[C@@H](CC(N)=O)C(=O)N[C@@H]([C@@H](C)O)C(=O)N[C@@H](C)C(=O)N[C@@H]([C@@H](C)O)C(=O)N1)[C@@H](C)O)C(=O)N[C@@H](CC(C)C)C(=O)N1CCC[C@H]1C(=O)N1CCC[C@H]1C(=O)N[C@H](C(=O)N[C@@H](CC(N)=O)C(=O)N[C@H](C(=O)NCC(=O)N[C@@H](CO)C(=O)N[C@@H](CC(N)=O)C(=O)N[C@H](C(=O)N[C@@H](Cc1ccc(O)cc1)C(N)=O)[C@@H](C)O)C(C)C)[C@@H](C)O [Example 31, N-alpha-[(S)-4-Carboxy-4-(17-carboxyheptadecanoylamino)butyryl]-His-[His1,His17]-pramlintide] ({C18 diacid-γGlu}-HHCNTATCATQRLANFLHHSSNNFGPILPPTNVGSNTY-NH2; disulfide 3-8) | 41 h | effectively reducing food intake | 0.02 nM
CC[C@H](C)[C@H](NC(=O)[C@@H]1CCCN1C(=O)CNC(=O)[C@H](Cc1ccccc1)NC(=O)[C@H](CC(N)=O)NC(=O)[C@H](CC(N)=O)NC(=O)[C@H](CO)NC(=O)[C@H](CO)NC(=O)[C@H](CCCNC(=N)N)NC(=O)[C@H](Cc1c[nH]cn1)NC(=O)[C@H](CC(C)C)NC(=O)[C@H](Cc1ccccc1)NC(=O)[C@H](CC(N)=O)NC(=O)[C@H](C)NC(=O)[C@H](CC(C)C)NC(=O)[C@H](CCCNC(=N)N)NC(=O)[C@H](CCC(N)=O)NC(=O)[C@@H](NC(=O)[C@H](C)NC(=O)[C@@H]1CSSC[C@H](NC(=O)[C@H](Cc2c[nH]cn2)NC(=O)[C@H](Cc2c[nH]cn2)NC(=O)CC[C@H](NC(=O)CCCCCCCCCCCCCCCCCCC(=O)O)C(=O)O)C(=O)N[C@@H](CC(N)=O)C(=O)N[C@@H]([C@@H](C)O)C(=O)N[C@@H](C)C(=O)N[C@@H]([C@@H](C)O)C(=O)N1)[C@@H](C)O)C(=O)N[C@@H](CC(C)C)C(=O)N1CCC[C@H]1C(=O)N1CCC[C@H]1C(=O)N[C@H](C(=O)N[C@@H](CC(N)=O)C(=O)N[C@H](C(=O)NCC(=O)N[C@@H](CO)C(=O)N[C@@H](CC(N)=O)C(=O)N[C@H](C(=O)N[C@@H](Cc1ccc(O)cc1)C(N)=O)[C@@H](C)O)C(C)C)[C@@H](C)O [Example 47, N-alpha-[(S)-4-Carboxy-4-(19-carboxynonadecanoylamino)butyryl]-His-[His1,His17,Arg18]-pramlintide] ({C20 diacid-γGlu}-HHCNTATCATQRLANFLHRSSNNFGPILPPTNVGSNTY-NH2; disulfide 3-8) | 30 h | effectively reducing food intake | 0.2 nM
CC[C@H](C)[C@H](NC(=O)[C@@H]1CCCN1C(=O)CNC(=O)[C@H](Cc1ccccc1)NC(=O)[C@H](CC(N)=O)NC(=O)[C@H](CC(N)=O)NC(=O)[C@H](CO)NC(=O)[C@H](CO)NC(=O)[C@H](Cc1c[nH]cn1)NC(=O)[C@H](Cc1c[nH]cn1)NC(=O)[C@H](CC(C)C)NC(=O)[C@H](Cc1ccccc1)NC(=O)[C@H](CC(N)=O)NC(=O)[C@H](C)NC(=O)[C@H](CC(C)C)NC(=O)[C@H](CCCNC(=N)N)NC(=O)[C@H](CCC(N)=O)NC(=O)[C@@H](NC(=O)[C@H](C)NC(=O)[C@@H]1CSSC[C@H](NC(=O)[C@H](Cc2c[nH]cn2)NC(=O)[C@H](Cc2c[nH]cn2)NC(=O)CC[C@H](NC(=O)CCCCCCCCCCCCCCCCCCC(=O)O)C(=O)O)C(=O)N[C@@H](CC(N)=O)C(=O)N[C@@H]([C@@H](C)O)C(=O)N[C@@H](C)C(=O)N[C@@H]([C@@H](C)O)C(=O)N1)[C@@H](C)O)C(=O)N[C@@H](CC(C)C)C(=O)N1CCC[C@H]1C(=O)N1CCC[C@H]1C(=O)N[C@H](C(=O)N[C@@H](CC(N)=O)C(=O)N[C@H](C(=O)NCC(=O)N[C@@H](CO)C(=O)N[C@@H](CC(N)=O)C(=O)N[C@H](C(=O)N[C@@H](Cc1ccc(O)cc1)C(N)=O)[C@@H](C)O)C(C)C)[C@@H](C)O [Example 27, N-alpha-[(S)-4-Carboxy-4-(19-carboxynonadecanoylamino)butyryl]-His-[His1,His17]-pramlintide] ({C20 diacid-γGlu}-HHCNTATCATQRLANFLHHSSNNFGPILPPTNVGSNTY-NH2; disulfide 3-8) | 64 h | effectively reducing food intake | 0.1 nM
